This note sets out measurements from ChEMBL document CHEMBL5104133, “Sortase A-mediated cyclization of novel polycyclic RGD peptides for ανβ3 integrin targeting” (Bioorg Med Chem Lett, 2022).

Usually IC50 stands for the concentration at which inhibition is half-maximal. Low readings indicate inhibition by little substance, high ones a need for much substance.

In one assay the target is Integrin alpha-5/beta-1 (Homo sapiens, UniProt P05556+P08648). In words: Inhibition of alpha5beta1 integrin receptor expressed on human surface of adipose tissue-derived stem cells. The assay is classed as cell-based, Adipose tissue derived mesenchymal stem cell.
For assay [1], the target named is Integrin alpha-IIb/beta-3 (Homo sapiens, UniProt P05106+P08514). In words: Inhibition of alpha2bbeta3 integrin receptor expressed on human surface of platelets. It counts as cell-based, Platelet.
The target in a further assay is Integrin alpha-V/beta-5 (Homo sapiens, UniProt P06756+P18084). The assay can be described thus: Inhibition of alphavbeta5 integrin receptor-mediated cell adhesion to vitronectin in human HT-29 cells. The assay is classed as cell-based.
Assay [2] addresses T1, Integrin alpha-V/beta-3 (Homo sapiens, UniProt P05106+P06756). The assay can be described thus: Inhibition of alphavbeta3 integrin receptor-mediated cell adhesion to fibrinogen in human HEK293 cells. It counts as cell-based.
The species named for a further assay is Homo sapiens. In words: Selectivity ratio of IC50 for alphavbeta5 integrin receptor-mediated cell adhesion to vitronectin in human HT-29 cells to IC50 for alphavbeta3 integrin receptor-mediated cell adhesion to fibrinogen in human HEK293 cells. The assay is classed as cell-based.
Assay [3] deals with T1, Integrin alpha-V/beta-3. In words: Inhibition of alphavbeta3 integrin receptor-mediated cell adhesion to fibrinogen in human SK-OV-3 cells […] integrin receptor. The assay is classed as cell-based.

Structures are written as SMILES.

T1 sequence (P05106 27-788 limits assumed): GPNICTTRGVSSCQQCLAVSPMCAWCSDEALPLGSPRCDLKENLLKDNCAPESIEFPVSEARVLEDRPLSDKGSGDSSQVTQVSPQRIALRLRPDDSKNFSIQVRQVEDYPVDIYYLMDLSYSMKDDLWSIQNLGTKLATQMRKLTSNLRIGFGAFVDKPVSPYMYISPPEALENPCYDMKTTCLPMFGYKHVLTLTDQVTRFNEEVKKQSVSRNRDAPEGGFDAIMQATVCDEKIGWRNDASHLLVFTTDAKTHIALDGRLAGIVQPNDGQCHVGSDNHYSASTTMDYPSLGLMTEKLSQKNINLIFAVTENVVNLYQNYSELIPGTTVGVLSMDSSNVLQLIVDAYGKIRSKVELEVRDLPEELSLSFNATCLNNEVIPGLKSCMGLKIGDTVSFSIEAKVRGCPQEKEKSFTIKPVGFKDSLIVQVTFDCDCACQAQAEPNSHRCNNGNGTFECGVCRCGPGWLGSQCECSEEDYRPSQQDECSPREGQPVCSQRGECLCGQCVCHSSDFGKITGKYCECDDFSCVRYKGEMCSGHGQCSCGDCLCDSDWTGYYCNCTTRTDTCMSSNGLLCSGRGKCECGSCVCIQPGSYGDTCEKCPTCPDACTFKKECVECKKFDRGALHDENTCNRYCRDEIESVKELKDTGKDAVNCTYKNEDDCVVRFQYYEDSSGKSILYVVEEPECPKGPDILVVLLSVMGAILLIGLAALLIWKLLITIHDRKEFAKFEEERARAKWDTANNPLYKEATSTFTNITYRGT
T1 sequence (P06756 31-889 limits assumed): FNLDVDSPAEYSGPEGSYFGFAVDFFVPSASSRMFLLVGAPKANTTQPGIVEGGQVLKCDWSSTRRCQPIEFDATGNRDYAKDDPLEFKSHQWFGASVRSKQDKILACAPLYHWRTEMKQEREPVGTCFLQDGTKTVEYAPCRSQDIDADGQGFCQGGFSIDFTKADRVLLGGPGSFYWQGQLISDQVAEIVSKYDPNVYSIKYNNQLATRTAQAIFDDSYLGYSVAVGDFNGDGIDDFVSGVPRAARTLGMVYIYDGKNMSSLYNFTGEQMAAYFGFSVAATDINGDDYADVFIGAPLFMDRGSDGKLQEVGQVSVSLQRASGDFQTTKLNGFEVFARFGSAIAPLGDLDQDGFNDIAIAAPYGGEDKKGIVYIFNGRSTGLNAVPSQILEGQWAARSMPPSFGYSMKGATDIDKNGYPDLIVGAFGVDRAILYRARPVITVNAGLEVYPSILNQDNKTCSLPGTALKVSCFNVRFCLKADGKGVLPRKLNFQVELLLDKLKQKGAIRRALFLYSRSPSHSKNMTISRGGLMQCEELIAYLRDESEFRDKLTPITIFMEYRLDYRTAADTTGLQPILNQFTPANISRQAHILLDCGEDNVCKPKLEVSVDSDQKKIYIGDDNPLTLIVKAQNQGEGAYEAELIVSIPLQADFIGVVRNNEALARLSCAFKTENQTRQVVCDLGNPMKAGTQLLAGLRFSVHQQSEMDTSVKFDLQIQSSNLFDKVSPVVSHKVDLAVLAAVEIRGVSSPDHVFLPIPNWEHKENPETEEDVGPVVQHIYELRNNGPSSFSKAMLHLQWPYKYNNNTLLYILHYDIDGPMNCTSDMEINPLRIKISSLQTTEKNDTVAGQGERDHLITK
T1 sequence (P06756 891-1048 limits assumed): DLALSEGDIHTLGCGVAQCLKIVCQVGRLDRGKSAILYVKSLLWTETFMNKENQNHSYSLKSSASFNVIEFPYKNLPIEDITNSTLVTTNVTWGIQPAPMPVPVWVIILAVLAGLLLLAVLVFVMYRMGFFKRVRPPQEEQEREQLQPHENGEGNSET
Chain of Integrin alpha-IIb/beta-3 (P05106 27-788 limits assumed): as the sequence (P05106 27-788 limits assumed) above
Chain of Integrin alpha-IIb/beta-3 (P08514 32-887 limits assumed): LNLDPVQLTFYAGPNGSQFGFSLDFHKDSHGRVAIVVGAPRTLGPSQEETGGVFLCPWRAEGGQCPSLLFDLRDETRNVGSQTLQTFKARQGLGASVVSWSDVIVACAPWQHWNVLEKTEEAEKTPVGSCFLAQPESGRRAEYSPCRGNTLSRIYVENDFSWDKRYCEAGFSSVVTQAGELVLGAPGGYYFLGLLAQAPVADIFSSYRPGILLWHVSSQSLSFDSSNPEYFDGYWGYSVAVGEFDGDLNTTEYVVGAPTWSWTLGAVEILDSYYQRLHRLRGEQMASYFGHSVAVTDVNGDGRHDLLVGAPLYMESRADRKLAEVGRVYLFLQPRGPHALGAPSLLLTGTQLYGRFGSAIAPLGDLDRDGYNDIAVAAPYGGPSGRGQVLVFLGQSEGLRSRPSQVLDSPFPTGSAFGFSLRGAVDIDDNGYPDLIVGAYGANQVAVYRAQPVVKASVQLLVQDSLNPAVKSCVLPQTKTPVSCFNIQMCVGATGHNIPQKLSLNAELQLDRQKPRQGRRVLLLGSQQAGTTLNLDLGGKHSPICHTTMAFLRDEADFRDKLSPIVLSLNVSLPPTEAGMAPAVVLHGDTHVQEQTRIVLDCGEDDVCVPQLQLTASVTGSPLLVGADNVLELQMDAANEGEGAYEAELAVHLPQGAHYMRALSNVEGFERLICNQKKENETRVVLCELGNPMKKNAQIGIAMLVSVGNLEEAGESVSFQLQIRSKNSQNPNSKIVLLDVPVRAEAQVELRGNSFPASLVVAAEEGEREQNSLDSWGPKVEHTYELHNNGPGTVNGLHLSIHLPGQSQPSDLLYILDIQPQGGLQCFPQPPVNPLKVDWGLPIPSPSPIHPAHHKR
Chain of Integrin alpha-IIb/beta-3 (P08514 891-1039 limits assumed): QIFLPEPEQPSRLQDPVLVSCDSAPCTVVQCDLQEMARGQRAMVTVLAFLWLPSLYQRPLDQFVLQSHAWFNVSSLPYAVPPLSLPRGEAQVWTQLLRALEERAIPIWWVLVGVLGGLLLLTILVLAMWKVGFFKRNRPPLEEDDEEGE
Chain of Integrin alpha-5/beta-1 (P05556 21-798 limits assumed): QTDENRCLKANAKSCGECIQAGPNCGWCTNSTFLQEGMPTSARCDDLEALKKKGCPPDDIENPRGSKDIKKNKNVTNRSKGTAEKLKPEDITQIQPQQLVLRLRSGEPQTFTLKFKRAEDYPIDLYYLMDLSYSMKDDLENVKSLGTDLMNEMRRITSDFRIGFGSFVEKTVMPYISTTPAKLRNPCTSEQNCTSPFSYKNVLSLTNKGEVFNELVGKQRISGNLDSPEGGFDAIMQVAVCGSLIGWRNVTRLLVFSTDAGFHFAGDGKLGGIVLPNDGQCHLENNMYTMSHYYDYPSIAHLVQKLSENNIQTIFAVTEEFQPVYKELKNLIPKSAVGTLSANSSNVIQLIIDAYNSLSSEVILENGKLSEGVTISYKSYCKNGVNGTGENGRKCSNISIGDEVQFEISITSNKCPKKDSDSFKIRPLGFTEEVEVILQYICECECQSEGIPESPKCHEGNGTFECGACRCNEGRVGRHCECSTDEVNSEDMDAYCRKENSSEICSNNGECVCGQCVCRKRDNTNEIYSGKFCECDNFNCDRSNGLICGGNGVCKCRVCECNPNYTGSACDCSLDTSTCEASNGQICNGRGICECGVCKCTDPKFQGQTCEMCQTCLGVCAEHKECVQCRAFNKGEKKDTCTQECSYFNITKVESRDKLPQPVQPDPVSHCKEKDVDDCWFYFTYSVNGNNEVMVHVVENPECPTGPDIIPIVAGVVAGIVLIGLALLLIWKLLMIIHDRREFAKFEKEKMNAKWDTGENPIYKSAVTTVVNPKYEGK
Chain of Integrin alpha-5/beta-1 (P08648 42-894 limits assumed): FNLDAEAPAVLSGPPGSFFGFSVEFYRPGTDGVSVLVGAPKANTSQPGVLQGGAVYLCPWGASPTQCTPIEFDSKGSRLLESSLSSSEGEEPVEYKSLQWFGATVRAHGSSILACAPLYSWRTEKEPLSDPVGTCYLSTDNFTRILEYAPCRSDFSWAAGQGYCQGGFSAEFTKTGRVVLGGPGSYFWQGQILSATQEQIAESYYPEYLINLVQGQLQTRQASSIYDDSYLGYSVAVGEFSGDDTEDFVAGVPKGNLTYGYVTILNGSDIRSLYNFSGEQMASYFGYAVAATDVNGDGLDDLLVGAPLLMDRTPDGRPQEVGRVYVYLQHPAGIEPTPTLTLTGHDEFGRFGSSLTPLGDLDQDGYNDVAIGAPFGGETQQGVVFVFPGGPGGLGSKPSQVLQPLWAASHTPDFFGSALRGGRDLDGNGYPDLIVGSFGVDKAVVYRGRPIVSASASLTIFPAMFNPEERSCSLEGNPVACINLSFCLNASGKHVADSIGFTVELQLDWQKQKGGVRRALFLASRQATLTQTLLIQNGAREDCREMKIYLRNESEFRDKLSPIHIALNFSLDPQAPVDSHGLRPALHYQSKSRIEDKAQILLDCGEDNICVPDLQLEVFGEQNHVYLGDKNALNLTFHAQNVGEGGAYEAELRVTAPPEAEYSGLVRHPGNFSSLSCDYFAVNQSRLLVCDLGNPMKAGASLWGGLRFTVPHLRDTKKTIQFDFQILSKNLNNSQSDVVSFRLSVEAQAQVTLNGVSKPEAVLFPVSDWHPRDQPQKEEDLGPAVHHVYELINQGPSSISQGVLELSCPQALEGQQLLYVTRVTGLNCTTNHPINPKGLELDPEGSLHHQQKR
Chain of Integrin alpha-5/beta-1 (P08648 895-1049 limits assumed): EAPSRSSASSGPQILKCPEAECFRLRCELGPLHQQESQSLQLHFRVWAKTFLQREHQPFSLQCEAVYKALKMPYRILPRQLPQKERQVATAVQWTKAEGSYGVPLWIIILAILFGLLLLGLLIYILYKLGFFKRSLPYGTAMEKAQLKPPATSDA

Regarding `CC(C)C[C@@H]1NC(=O)[C@@H]2CSSC[C@@H]3NC(=O)[C@H](CSSC[C@H](NC(=O)[C@H](C(C)C)NC(=O)[C@@H](Cc4ccccc4)NC(=O)[C@H](CC(=O)O)NC(=O)CNC(=O)[C@H](CCCNC(=N)N)NC3=O)C(=O)N[C@@H](CCCNC(=N)N)C(=O)NCC(=O)N[C@@H](CC(=O)O)C(=O)N[C@H](Cc3ccccc3)C(=O)N[C@@H](C(C)C)C(=O)N2)NC(=O)CNC(=O)CNC(=O)[C@H]([C@@H](C)O)NC(=O)[C@H](CCCCN)NC(=O)[C@@H]2CCCN2C1=O`, the IC50 on Integrin alpha-5/beta-1 is 0.154 µM; in assay [1], above 1 µM; on Integrin alpha-V/beta-5, 208 µM; on Integrin alpha-V/beta-3 [2], 8.43 µM; on Integrin alpha-V/beta-3 [3] it was 34 µM. The Ratio IC50 in the assay listed under Homo sapiens was 0.041.

For `CC(C)C[C@@H]1NC(=O)[C@@H]2CSCc3cc4cc(c3)CSC[C@H](NC(=O)[C@H](C(C)C)NC(=O)[C@@H](Cc3ccccc3)NC(=O)[C@H](CC(=O)O)NC(=O)CNC(=O)[C@H](CCCNC(=N)N)NC(=O)[C@H](CSC4)NC(=O)CNC(=O)CNC(=O)CNC(=O)[C@H]([C@H](C)O)NC(=O)[C@H](CCCCN)NC(=O)[C@@H]3CCCN3C1=O)C(=O)N[C@@H](CCCNC(=N)N)C(=O)NCC(=O)N[C@H](CC(=O)O)C(=O)N[C@H](Cc1ccccc1)C(=O)N[C@H](C(C)C)C(=O)N2`, the IC50 is 0.154 µM against Integrin alpha-5/beta-1; above 1 µM in assay [1]; 30.2 µM on Integrin alpha-V/beta-5; 0.2 µM against Integrin alpha-V/beta-3 [2]; 25.1 µM against Integrin alpha-V/beta-3 [3]. For the same compound, the Ratio IC50 in the assay listed under Homo sapiens was determined as 0.006.
